Experimental data: PMC2652407 (Journal of Medicinal Chemistry, 2009)

Assays:
hAdoMetDC [1] = target: T1, hAdoMetDC (Homo sapiens, UniProt P17707); assay type: biochemical; settings: versus corresponding 8-H parent compound
T1 sequence (P17707 1-67 limits assumed): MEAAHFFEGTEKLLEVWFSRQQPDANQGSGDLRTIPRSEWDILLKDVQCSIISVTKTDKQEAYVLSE
T1 sequence (P17707 68-328 limits assumed): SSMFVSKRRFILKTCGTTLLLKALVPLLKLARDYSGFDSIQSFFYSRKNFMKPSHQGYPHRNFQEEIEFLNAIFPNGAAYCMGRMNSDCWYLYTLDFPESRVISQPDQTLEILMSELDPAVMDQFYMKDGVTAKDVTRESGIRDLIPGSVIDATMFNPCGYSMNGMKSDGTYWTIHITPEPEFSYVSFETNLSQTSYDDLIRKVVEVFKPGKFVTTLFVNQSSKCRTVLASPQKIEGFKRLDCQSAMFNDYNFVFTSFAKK

hAdoMetDC [2] = target: T1, hAdoMetDC; settings: previously reported AdoMetDC inhibitor; cited from earlier work

Row | SMILES | reduction in the IC50 value / increase in potency when an 8-methyl substituent was added to the adenine ring (hAdoMetDC [1]) | Ki (hAdoMetDC [2])
1 | Cc1nc2c(N)ncnc2n1[C@@H]1O[C@H](CN(C)CCCCON)[C@@H](O)[C@H]1O.O=S(=O)(O)O [Compound 14d, 5′-[(4-Aminooxybutyl)methylamino]-5′-deoxy-8-methyladenosine sulfate (1.9:1 salt)] | 3.4 fold | 
2 | C[S+](C)C[C@H]1O[C@@H](n2cnc3c(N)ncnc32)[C@H](O)[C@@H]1O.[Cl-] [Compound 25d, 5′-Deoxy-5′-dimethylsulfonioadenosine chloride] |  | μM range
